Data as given in ChEMBL document CHEMBL1201862, “PubChem BioAssay data set” (2004).
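Each compound was tested at five concentrations against cells in 96-well plates for 48 hours. GI50 = concentration required for 50% inhibition of growth.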 Active and inactive are the calls of the source. Rule as the data show it: active = GI50 up to about 1.1 µM and inactive = higher.

Tests used:
Experiment in all cases: NCI anticancer screen, dose series, 48 h
[1] = test system: HOP-62
[2] = test system: SW-620
[3] = test system: OVCAR-3
[4] = test system: PC-3
[5] = test system: SR
[6] = test system: COLO 205
[7] = test system: UO-31
[8] = test system: A549
[9] = test system: KM12
[10] = test system: LOX IMVI
[11] = test system: MDA-MB-435
[12] = test system: HT-29
[13] = test system: OVCAR-8
[14] = test system: RPMI-8226
[15] = test system: NCI-H23
[16] = test system: TK-10
[17] = test system: 786-0
[18] = test system: NCI-H522
[19] = test system: ACHN
[20] = test system: SF-539
[21] = test system: SN12C
[22] = test system: U-251
[23] = test system: Malme-3M
[24] = test system: MDA-MB-231
[25] = test system: SNB-75
[26] = test system: EKVX
[27] = test system: HCT-15
[28] = test system: DU-145
[29] = test system: SF-295
[30] = test system: HL-60
[31] = test system: MCF7
[32] = test system: NCI-H226
[33] = test system: SF-268
[34] = test system: SK-OV-3
[35] = test system: SK-MEL-5
[36] = test system: CAKI-1
[37] = test system: HCC 2998
[38] = test system: NCI/ADR-RES
[39] = test system: Hs-578T
[40] = test system: UACC-257
[41] = test system: T47D
[42] = test system: CCRF-CEM
[43] = test system: SK-MEL-28
[44] = test system: M14
[45] = test system: NCI-H460
[46] = test system: A498
[47] = test system: UACC-62
[48] = test system: BT-549
[49] = test system: MDA-N
[50] = test system: SNB-19
[51] = test system: OVCAR-5
[52] = test system: HOP-92
[53] = test system: SK-MEL-2
[54] = test system: HCT-116
[55] = test system: MOLT-4
[56] = test system: IGROV-1
[57] = test system: K562
[58] = test system: OVCAR-4

Compound: O=C1c2cc(-c3ccccc3)cnc2S(=O)(=O)N1c1ccc(Br)cc1
- GI50 [1]: 16.8 µM (inactive)
- GI50 [2]: 81.8 µM (inactive)
- GI50 [3]: 47.1 µM (inactive)
- GI50 [4]: 34.4 µM (inactive)
- GI50 [5]: 10.3 µM (inactive)
- GI50 [6]: > 100 µM (inactive)
- GI50 [7]: > 100 µM (inactive)
- GI50 [8]: 18.7 µM (inactive)
- GI50 [9]: 25.5 µM (inactive)
- GI50 [10]: 41.1 µM (inactive)
- GI50 [11]: > 100 µM (inactive)
- GI50 [12]: > 100 µM (inactive)
- GI50 [13]: 44 µM (inactive)
- GI50 [14]: 21.1 µM (inactive)
- GI50 [15]: 63.1 µM (inactive)
- GI50 [16]: > 100 µM (inactive)
- GI50 [17]: 37.6 µM (inactive)
- GI50 [18]: 14.8 µM (inactive)
- GI50 [19]: > 100 µM (inactive)
- GI50 [20]: 30.5 µM (inactive)
- GI50 [21]: > 100 µM (inactive)
- GI50 [22]: 30.1 µM (inactive)
- GI50 [23]: 20.3 µM (inactive)
- GI50 [24]: 52.2 µM (inactive)
- GI50 [25]: 25.1 µM (inactive)
- GI50 [26]: > 100 µM (inactive)
- GI50 [27]: 34.7 µM
- GI50 [28]: 58.3 µM (inactive)
- GI50 [29]: 20 µM (inactive)
- GI50 [30]: 18.9 µM (inactive)
- GI50 [31]: > 100 µM (inactive)
- GI50 [32]: > 100 µM (inactive)
- GI50 [33]: 33.7 µM (inactive)
- GI50 [34]: 26.2 µM (inactive)
- GI50 [35]: 70 µM (inactive)
- GI50 [36]: 40.4 µM (inactive)
- GI50 [37]: 17.8 µM (inactive)
- GI50 [38]: 83.6 µM (inactive)
- GI50 [39]: 20 µM (inactive)
- GI50 [40]: > 100 µM (inactive)
- GI50 [41]: 37.7 µM (inactive)
- GI50 [42]: 24.9 µM (inactive)
- GI50 [43]: 90.8 µM (inactive)
- GI50 [44]: 76.9 µM (inactive)
- GI50 [45]: 24.3 µM (inactive)
- GI50 [46]: > 100 µM (inactive)
- GI50 [47]: 32.8 µM (inactive)
- GI50 [48]: > 100 µM (inactive)
- GI50 [49]: > 100 µM (inactive)
- GI50 [50]: 15.8 µM (inactive)
- GI50 [51]: 40.8 µM (inactive)
- GI50 [52]: 27.1 µM (inactive)
- GI50 [53]: 96.2 µM (inactive)
- GI50 [54]: 71.9 µM (inactive)
- GI50 [55]: 46.3 µM (inactive)
- GI50 [56]: 46.2 µM (inactive)

Compound: CNC1C(O)C(OC2C(N)CC(N)C(OC3OC(C(C)O)C(O)C(O)C3N)C2O)OCC1(C)O (configuration not stated)
- GI50 [1]: > 100 µM (inactive)
- GI50 [2]: > 100 µM (inactive)
- GI50 [3]: > 100 µM (inactive)
- GI50 [4]: > 100 µM (inactive)
- GI50 [5]: > 100 µM (inactive)
- GI50 [6]: > 100 µM (inactive)
- GI50 [7]: > 100 µM (inactive)
- GI50 [8]: > 100 µM (inactive)
- GI50 [9]: > 100 µM (inactive)
- GI50 [10]: > 100 µM (inactive)
- GI50 [11]: > 100 µM (inactive)
- GI50 [12]: > 100 µM (inactive)
- GI50 [13]: > 100 µM (inactive)
- GI50 [14]: > 100 µM (inactive)
- GI50 [15]: > 100 µM (inactive)
- GI50 [16]: > 100 µM (inactive)
- GI50 [17]: > 100 µM (inactive)
- GI50 [18]: > 100 µM (inactive)
- GI50 [19]: > 100 µM (inactive)
- GI50 [20]: > 100 µM (inactive)
- GI50 [21]: > 100 µM (inactive)
- GI50 [22]: > 100 µM (inactive)
- GI50 [23]: > 10 µM (inactive)
- GI50 [24]: > 100 µM (inactive)
- GI50 [25]: > 100 µM (inactive)
- GI50 [26]: > 100 µM (inactive)
- GI50 [27]: > 100 µM
- GI50 [28]: > 100 µM (inactive)
- GI50 [29]: > 100 µM (inactive)
- GI50 [30]: > 100 µM (inactive)
- GI50 [31]: > 100 µM (inactive)
- GI50 [32]: > 100 µM (inactive)
- GI50 [33]: > 100 µM (inactive)
- GI50 [34]: > 100 µM (inactive)
- GI50 [35]: > 100 µM (inactive)
- GI50 [36]: > 100 µM (inactive)
- GI50 [37]: > 100 µM (inactive)
- GI50 [38]: > 100 µM (inactive)
- GI50 [39]: > 100 µM (inactive)
- GI50 [41]: > 100 µM (inactive)
- GI50 [42]: > 100 µM (inactive)
- GI50 [43]: > 100 µM (inactive)
- GI50 [44]: > 100 µM (inactive)
- GI50 [45]: > 100 µM (inactive)
- GI50 [46]: > 100 µM (inactive)
- GI50 [47]: > 100 µM (inactive)
- GI50 [48]: > 100 µM (inactive)
- GI50 [49]: > 100 µM (inactive)
- GI50 [50]: > 100 µM (inactive)
- GI50 [57]: > 100 µM (inactive)
- GI50 [58]: > 100 µM (inactive)
- GI50 [51]: > 100 µM (inactive)
- GI50 [53]: > 100 µM (inactive)
- GI50 [54]: > 100 µM (inactive)
- GI50 [55]: > 100 µM (inactive)
- GI50 [56]: > 100 µM (inactive)
